Experiment [1] has as its target T1, Human melanocortin (MC5) (Homo sapiens, UniProt P33032).
T1 construct: purchased Perkin Elmer Biosignal
In words: Radioligand binding, human melanocortin MC5 membranes, FlashPlate, [125I]-NDP-αMSH. The following applies: compound at 10 μM; human melanocortin MC5 membranes. In outline: (§1)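 Cloned human receptor membranes were coated onto FlashPlate wells and incubated with radioligand and compound (added from a 0.5 mM DMSO daughter plate) for 1 hour at room temperature in the dark. Scintillation counting gave percent inhibition, with DMSO defining total and reference ligand defining non-specific binding.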

Experiment [2] deals with T2, Mouse urotensin (mUR2) (Mus musculus, UniProt Q8VIH9).
T2 construct: purchased Perkin Elmer Biosignal
T2 sequence (Q8VIH9 1-385): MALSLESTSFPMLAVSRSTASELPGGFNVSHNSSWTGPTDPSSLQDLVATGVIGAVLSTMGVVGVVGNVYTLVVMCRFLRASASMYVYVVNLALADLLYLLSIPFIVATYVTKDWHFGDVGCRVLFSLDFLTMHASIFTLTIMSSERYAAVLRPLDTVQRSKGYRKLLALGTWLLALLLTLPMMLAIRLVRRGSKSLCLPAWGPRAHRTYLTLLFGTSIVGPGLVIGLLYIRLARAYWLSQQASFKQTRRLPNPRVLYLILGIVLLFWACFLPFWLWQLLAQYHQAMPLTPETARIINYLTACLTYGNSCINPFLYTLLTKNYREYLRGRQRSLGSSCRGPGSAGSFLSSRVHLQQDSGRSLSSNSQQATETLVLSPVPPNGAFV
The experiment can be described thus: Radioligand binding, mouse urotensin mUR2 membranes, FlashPlate, [125I]-Urotensin II. Conditions: compound at 10 μM; mouse urotensin mUR2 membranes. The gist of the method: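 Cloned mouse urotensin (mUR2) receptor membranes from Perkin Elmer Biosignal were immobilized in FlashPlate microplates using a proprietary coating. Each well got 19.5 μl buffer, then 0.5 μl of DMSO, reference ligand, or compound. Adding 5 μl of [125I]-Urotensin II, diluted to 5× final concentration in binding buffer, started binding. Plates were sealed with TopSeal-A and incubated 1 hour at room temperature in the dark. Wells were counted for 30 seconds each on a TopCount after a 60-second delay, and percentage inhibition was calculated.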

The target in experiment [3] is T3, Human melanin-concentrating hormone (MCH1) (Homo sapiens, UniProt Q99705).
T3 construct: purchased Perkin Elmer Biosignal
The experiment can be described thus: Radioligand binding, human melanin-concentrating hormone MCH1 membranes, FlashPlate, [125I]-S36057. Conditions: compound at 10 μM; human MCH1 membranes. The gist of the method: as §1

In experiment [4] the target is T4, Human Melanocortin (MC4) (Homo sapiens, UniProt P32245).
T4 construct: purchased Perkin Elmer Biosignal
In words: Radioligand binding, human melanocortin MC4 membranes, FlashPlate, [125I]-NDP-αMSH. Conditions: compound at 10 μM; human melanocortin MC4 membranes. The gist of the method:
as §1

Experiment [5] has as its target T5, Human Melanocortin (MC3) (Homo sapiens, UniProt P41968).
T5 construct: purchased Perkin Elmer Biosignal
In words: Radioligand binding, human melanocortin MC3 membranes, FlashPlate, [125I]-NDP-αMSH. Conditions: compound at 10 μM; human melanocortin MC3 membranes. The gist of the method: as §1

The target of experiment [6] is T6, Human δ-opioid (DOP) (Homo sapiens, UniProt P41143).
T6 construct: purchased Perkin Elmer Biosignal
In words: Radioligand binding, human δ-opioid (DOP) membranes, FlashPlate, [3H]-Bremazocine. The following applies: compound at 10 μM; human δ-opioid (DOP) membranes. The gist of the method:
as §1

In experiment [7] the target is T7, Human neurokinin (NK1) (Homo sapiens, UniProt P25103).
T7 construct: purchased Perkin Elmer Biosignal
The experiment can be described thus: Radioligand binding, human neurokinin NK1 membranes, filtration, [125I]-Substance P. The following applies: compound at 10 μM; human neurokinin NK1 membranes. The gist of the method:
(§2)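 Membranes from cloned human receptors were incubated with compound and radioligand for 1 hour at room temperature. Bound ligand was collected on 0.3% PEI-soaked filters, washed with cold 50 mM Tris-HCl pH 7.4, and counted by scintillation. Percent inhibition was computed against DMSO totals and reference-ligand nonspecific wells.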

The target of experiment [8] is T8, Human neuropeptide Y (NPY-Y1) (Homo sapiens, UniProt P25929).
T8 construct: purchased Perkin Elmer Biosignal
T8 sequence (P25929 1-384): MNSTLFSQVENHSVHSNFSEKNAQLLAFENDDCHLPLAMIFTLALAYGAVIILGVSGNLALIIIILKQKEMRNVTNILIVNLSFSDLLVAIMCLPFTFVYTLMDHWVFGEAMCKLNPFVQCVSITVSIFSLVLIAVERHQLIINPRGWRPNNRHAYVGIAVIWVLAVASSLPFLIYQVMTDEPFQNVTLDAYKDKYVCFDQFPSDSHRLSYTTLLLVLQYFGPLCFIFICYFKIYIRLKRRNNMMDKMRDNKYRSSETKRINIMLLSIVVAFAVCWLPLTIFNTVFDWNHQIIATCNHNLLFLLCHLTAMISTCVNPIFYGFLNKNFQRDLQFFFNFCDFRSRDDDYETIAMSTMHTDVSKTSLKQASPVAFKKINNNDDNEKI
In words: Radioligand binding, human neuropeptide Y NPY-Y1 membranes, FlashPlate, [125I]-PYY. The following applies: compound at 10 μM; human NPY-Y1 membranes. The gist of the method: as §1

The target of experiment [9] is T9, Human opioid (ORL1) (Homo sapiens, UniProt P41146).
T9 construct: purchased Perkin Elmer Biosignal
The experiment can be described thus: Radioligand binding, human opioid ORL1 membranes, FlashPlate, [125I]-Nociceptin. The following applies: compound at 10 μM; human ORL1 membranes. The gist of the method: as §1

Experiment [10] addresses T10, Human μ-opioid (MOP) (Homo sapiens, UniProt P35372).
T10 construct: purchased Perkin Elmer Biosignal
In words: Radioligand binding, human μ-opioid (MOP) membranes, FlashPlate, [3H]-Naloxone. Conditions: compound at 10 μM; human μ-opioid (MOP) membranes. The gist of the method: as §1

The target of experiment [11] is T11, Human κ-Opioid (KOP) (Homo sapiens, UniProt P41145).
T11 construct: purchased Perkin Elmer Biosignal
In words: Radioligand binding, human κ-opioid (KOP) membranes, filtration, [3H]-Diprenorphine. The following applies: compound at 10 μM; human κ-opioid (KOP) membranes. In outline:
as §2

T11 sequence (P41145 whole entry): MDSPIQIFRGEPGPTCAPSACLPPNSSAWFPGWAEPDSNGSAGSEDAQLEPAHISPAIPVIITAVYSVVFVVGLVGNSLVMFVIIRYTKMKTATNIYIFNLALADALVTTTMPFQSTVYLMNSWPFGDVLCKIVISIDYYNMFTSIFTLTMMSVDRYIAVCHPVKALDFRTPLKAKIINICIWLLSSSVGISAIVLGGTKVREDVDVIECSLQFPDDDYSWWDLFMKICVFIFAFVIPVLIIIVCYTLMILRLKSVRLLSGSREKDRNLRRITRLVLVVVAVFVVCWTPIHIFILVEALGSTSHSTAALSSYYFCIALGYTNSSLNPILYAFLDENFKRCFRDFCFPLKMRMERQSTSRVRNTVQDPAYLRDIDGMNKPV
T4 sequence (P32245 whole entry): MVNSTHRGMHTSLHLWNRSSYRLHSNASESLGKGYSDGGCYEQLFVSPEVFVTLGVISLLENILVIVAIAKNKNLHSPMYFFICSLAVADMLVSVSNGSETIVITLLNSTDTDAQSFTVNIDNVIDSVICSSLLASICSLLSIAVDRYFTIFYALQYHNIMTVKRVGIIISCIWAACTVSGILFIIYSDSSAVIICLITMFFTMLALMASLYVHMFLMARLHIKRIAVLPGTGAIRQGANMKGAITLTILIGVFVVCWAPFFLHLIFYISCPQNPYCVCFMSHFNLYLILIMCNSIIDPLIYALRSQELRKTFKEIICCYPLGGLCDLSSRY
T9 sequence (P41146 whole entry): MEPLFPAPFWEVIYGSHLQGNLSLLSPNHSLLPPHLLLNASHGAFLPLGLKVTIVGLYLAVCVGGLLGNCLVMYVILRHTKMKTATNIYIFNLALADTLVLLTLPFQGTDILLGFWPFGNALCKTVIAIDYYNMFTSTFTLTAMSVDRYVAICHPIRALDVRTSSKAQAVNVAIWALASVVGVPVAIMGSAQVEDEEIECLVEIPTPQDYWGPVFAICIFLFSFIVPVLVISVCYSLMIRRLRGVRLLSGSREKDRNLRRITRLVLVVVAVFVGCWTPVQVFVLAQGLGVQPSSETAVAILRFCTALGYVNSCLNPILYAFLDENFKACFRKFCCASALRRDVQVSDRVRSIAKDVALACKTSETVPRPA
T1 sequence (P33032 whole entry): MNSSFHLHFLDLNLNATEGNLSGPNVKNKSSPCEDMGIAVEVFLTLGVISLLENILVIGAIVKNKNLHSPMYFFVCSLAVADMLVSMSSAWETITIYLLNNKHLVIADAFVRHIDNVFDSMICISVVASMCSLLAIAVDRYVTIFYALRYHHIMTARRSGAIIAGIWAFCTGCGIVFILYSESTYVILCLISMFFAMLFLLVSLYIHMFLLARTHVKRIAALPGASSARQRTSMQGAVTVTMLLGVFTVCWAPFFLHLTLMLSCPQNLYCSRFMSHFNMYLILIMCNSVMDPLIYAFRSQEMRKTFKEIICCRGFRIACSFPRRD
T5 sequence (P41968 whole entry): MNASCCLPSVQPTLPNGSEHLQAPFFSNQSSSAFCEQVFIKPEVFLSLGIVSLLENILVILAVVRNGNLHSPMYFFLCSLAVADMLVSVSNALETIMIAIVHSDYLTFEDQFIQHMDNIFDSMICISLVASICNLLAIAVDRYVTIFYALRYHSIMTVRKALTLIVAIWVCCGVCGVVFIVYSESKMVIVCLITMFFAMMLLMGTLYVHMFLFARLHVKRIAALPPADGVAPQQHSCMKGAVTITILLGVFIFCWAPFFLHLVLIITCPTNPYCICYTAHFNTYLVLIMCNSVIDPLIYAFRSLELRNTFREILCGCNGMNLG
T6 sequence (P41143 whole entry): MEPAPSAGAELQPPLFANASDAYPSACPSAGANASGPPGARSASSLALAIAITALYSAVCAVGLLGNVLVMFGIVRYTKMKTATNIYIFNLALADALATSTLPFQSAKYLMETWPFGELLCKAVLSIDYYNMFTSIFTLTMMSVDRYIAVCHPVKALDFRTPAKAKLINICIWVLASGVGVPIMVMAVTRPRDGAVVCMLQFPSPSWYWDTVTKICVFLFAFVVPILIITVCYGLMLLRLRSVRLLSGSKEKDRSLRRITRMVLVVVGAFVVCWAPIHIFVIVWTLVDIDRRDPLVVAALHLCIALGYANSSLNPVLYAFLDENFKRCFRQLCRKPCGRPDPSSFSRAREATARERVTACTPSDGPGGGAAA
T10 sequence (P35372 whole entry): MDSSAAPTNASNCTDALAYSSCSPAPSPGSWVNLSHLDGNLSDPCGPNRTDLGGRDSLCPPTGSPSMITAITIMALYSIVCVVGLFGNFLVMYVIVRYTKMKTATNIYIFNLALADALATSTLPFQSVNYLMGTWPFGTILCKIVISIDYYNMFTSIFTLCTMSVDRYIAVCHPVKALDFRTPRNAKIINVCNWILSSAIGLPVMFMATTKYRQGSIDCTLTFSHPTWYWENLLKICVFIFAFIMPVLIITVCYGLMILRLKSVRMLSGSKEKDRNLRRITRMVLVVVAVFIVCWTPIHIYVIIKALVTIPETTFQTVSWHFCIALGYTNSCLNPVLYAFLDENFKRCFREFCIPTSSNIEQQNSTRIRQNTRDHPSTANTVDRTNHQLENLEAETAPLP
T7 sequence (P25103 whole entry): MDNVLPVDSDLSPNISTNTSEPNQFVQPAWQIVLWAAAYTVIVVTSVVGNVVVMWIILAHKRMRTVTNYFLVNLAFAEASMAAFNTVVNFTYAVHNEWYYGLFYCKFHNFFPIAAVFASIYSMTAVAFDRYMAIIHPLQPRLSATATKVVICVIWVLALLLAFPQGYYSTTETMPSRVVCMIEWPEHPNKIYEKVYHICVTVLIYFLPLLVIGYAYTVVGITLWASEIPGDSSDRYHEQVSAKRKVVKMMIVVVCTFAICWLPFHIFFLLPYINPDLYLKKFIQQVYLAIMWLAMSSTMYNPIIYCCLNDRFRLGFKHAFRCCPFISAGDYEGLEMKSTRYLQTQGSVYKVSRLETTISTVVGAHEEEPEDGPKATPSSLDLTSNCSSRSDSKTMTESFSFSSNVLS
T3 sequence (Q99705 whole entry): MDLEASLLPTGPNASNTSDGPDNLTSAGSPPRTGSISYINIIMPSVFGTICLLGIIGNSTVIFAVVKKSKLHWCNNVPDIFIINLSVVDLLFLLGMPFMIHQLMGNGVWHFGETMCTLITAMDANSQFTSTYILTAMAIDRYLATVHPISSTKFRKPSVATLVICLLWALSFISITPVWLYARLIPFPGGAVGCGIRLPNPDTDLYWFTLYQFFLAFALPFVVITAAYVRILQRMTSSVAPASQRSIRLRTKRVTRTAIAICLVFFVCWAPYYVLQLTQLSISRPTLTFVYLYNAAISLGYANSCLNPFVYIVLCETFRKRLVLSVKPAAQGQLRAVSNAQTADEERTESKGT

On to `COC[C@H]1OC(OCc2ccc(-c3ccccc3)cc2)[C@H](NC(=O)CNC(=N)N)[C@@H](OCc2ccc(Cl)cc2)[C@@H]1O` (stereo partly shown) [compound 10], for which, in experiment [1], the “A5 radioligand binding inhibition” value is given as “+ (“+” indicates greater than 50% inhibition at 10 μM)”. Moreover, in [2], the “A11 radioligand binding inhibition” value is recorded as “− (“−” indicates less than 50% inhibition at 10 μM)”. For the same compound, the “A6 radioligand binding inhibition” value in [3] is reported as “+ (“+” indicates greater than 50% inhibition at 10 μM)”. Also, in experiment [4], the “A4 radioligand binding inhibition” value is recorded as “− (“−” indicates less than 50% inhibition at 10 μM)”. For the same compound, in experiment [5], the “A3 radioligand binding inhibition” value was “− (“−” indicates less than 50% inhibition at 10 μM)”. Also, the “A1 radioligand binding inhibition” value in experiment [6] was “− (“−” indicates less than 50% inhibition at 10 μM)”. For the same compound, in [7], the “A8 radioligand binding inhibition” value is given as “+ (“+” indicates greater than 50% inhibition at 10 μM)”. Moreover, in experiment [8], the “A9 radioligand binding inhibition” value is “− (“−” indicates less than 50% inhibition at 10 μM)”. For the same compound, in [9], the “A10 radioligand binding inhibition” value is given as “− (“−” indicates less than 50% inhibition at 10 μM)”. Further, the “A7 radioligand binding inhibition” value in experiment [10] is reported as “− (“−” indicates less than 50% inhibition at 10 μM)”. In addition, in experiment [11], the “A2 radioligand binding inhibition” value is recorded as “− (“−” indicates less than 50% inhibition at 10 μM)”.

For the compound `COC[C@H]1OC(OCc2ccc(-c3ccccc3)cc2)[C@H](NC(=O)CCNC(=N)N)[C@@H](OCc2ccc(Cl)cc2)[C@@H]1O` (stereo partly shown) [compound 11], in experiment [1], the “A5 radioligand binding inhibition” value was “+ (“+” indicates greater than 50% inhibition at 10 μM)”. In [2], the “A11 radioligand binding inhibition” value is recorded as “− (“−” indicates less than 50% inhibition at 10 μM)”. Also, in experiment [3], the “A6 radioligand binding inhibition” value is “+ (“+” indicates greater than 50% inhibition at 10 μM)”. For the same compound, the “A4 radioligand binding inhibition” value in experiment [4] is “+ (“+” indicates greater than 50% inhibition at 10 μM)”. Further, in experiment [5], the “A3 radioligand binding inhibition” value is recorded as “− (“−” indicates less than 50% inhibition at 10 μM)”. In experiment [6], the “A1 radioligand binding inhibition” value is given as “+ (“+” indicates greater than 50% inhibition at 10 μM)”. Besides, in experiment [7], the “A8 radioligand binding inhibition” value was “+ (“+” indicates greater than 50% inhibition at 10 μM)”. Also, in [8], the “A9 radioligand binding inhibition” value is listed as “− (“−” indicates less than 50% inhibition at 10 μM)”. Further, in [9], the “A10 radioligand binding inhibition” value is “− (“−” indicates less than 50% inhibition at 10 μM)”. The “A7 radioligand binding inhibition” value in experiment [10] is reported as “+ (“+” indicates greater than 50% inhibition at 10 μM)”. In experiment [11], the “A2 radioligand binding inhibition” value was “+ (“+” indicates greater than 50% inhibition at 10 μM)”.

As for `COC[C@H]1OC(OCc2ccc(-c3ccccc3)cc2)[C@H](NC(=O)CCCN)[C@@H](OCc2ccc(Cl)cc2)[C@@H]1O` (stereo partly shown) [compound 12], the “A5 radioligand binding inhibition” value in experiment [1] was “− (“−” indicates less than 50% inhibition at 10 μM)”. Besides, the “A11 radioligand binding inhibition” value in [2] is listed as “− (“−” indicates less than 50% inhibition at 10 μM)”. Also, the “A6 radioligand binding inhibition” value in experiment [3] is on record as “− (“−” indicates less than 50% inhibition at 10 μM)”. Further, the “A4 radioligand binding inhibition” value in experiment [4] was “− (“−” indicates less than 50% inhibition at 10 μM)”. For the same compound, in [5], the “A3 radioligand binding inhibition” value is on record as “− (“−” indicates less than 50% inhibition at 10 μM)”. Moreover, the “A1 radioligand binding inhibition” value in experiment [6] is reported as “− (“−” indicates less than 50% inhibition at 10 μM)”. The “A8 radioligand binding inhibition” value in experiment [7] was “+ (“+” indicates greater than 50% inhibition at 10 μM)”. Also, the “A9 radioligand binding inhibition” value in [8] is given as “− (“−” indicates less than 50% inhibition at 10 μM)”. Besides, the “A10 radioligand binding inhibition” value in [9] was “− (“−” indicates less than 50% inhibition at 10 μM)”. Besides, in experiment [10], the “A7 radioligand binding inhibition” value was “− (“−” indicates less than 50% inhibition at 10 μM)”. Besides, the “A2 radioligand binding inhibition” value in experiment [11] is recorded as “− (“−” indicates less than 50% inhibition at 10 μM)”.

Turning to `COC[C@H]1OC(OCc2ccc(-c3ccccc3)cc2)[C@H](NC(=O)CCCNC(=N)N)[C@@H](OCc2ccc(Cl)cc2)[C@@H]1O` (stereo partly shown) [compound 13], the “A5 radioligand binding inhibition” value in experiment [1] was “+ (“+” indicates greater than 50% inhibition at 10 μM)”. Moreover, in [2], the “A11 radioligand binding inhibition” value was “− (“−” indicates less than 50% inhibition at 10 μM)”. Further, the “A6 radioligand binding inhibition” value in experiment [3] is given as “+ (“+” indicates greater than 50% inhibition at 10 μM)”. The “A4 radioligand binding inhibition” value in experiment [4] is listed as “− (“−” indicates less than 50% inhibition at 10 μM)”. The “A3 radioligand binding inhibition” value in experiment [5] is “− (“−” indicates less than 50% inhibition at 10 μM)”. The “A1 radioligand binding inhibition” value in experiment [6] is given as “− (“−” indicates less than 50% inhibition at 10 μM)”. Besides, the “A8 radioligand binding inhibition” value in experiment [7] is “+ (“+” indicates greater than 50% inhibition at 10 μM)”. Moreover, in [8], the “A9 radioligand binding inhibition” value is listed as “− (“−” indicates less than 50% inhibition at 10 μM)”. In experiment [9], the “A10 radioligand binding inhibition” value is on record as “− (“−” indicates less than 50% inhibition at 10 μM)”. In addition, in experiment [10], the “A7 radioligand binding inhibition” value is “+ (“+” indicates greater than 50% inhibition at 10 μM)”. In addition, the “A2 radioligand binding inhibition” value in experiment [11] is reported as “− (“−” indicates less than 50% inhibition at 10 μM)”.

For `COC[C@H]1OC(OCc2ccc3ccccc3c2)[C@H](NC(=O)CNC(=N)N)[C@@H](OCc2ccc(-c3ccccc3)cc2)[C@@H]1O` (stereo partly shown) [compound 14], the “A5 radioligand binding inhibition” value in experiment [1] is on record as “+ (“+” indicates greater than 50% inhibition at 10 μM)”. In addition, the “A11 radioligand binding inhibition” value in experiment [2] is “− (“−” indicates less than 50% inhibition at 10 μM)”. For the same compound, the “A6 radioligand binding inhibition” value in experiment [3] is “+ (“+” indicates greater than 50% inhibition at 10 μM)”. The “A4 radioligand binding inhibition” value in experiment [4] is given as “+ (“+” indicates greater than 50% inhibition at 10 μM)”. Also, the “A3 radioligand binding inhibition” value in [5] is “− (“−” indicates less than 50% inhibition at 10 μM)”. For the same compound, in [6], the “A1 radioligand binding inhibition” value is recorded as “− (“−” indicates less than 50% inhibition at 10 μM)”. In experiment [7], the “A8 radioligand binding inhibition” value was “− (“−” indicates less than 50% inhibition at 10 μM)”. Besides, in experiment [8], the “A9 radioligand binding inhibition” value was “− (“−” indicates less than 50% inhibition at 10 μM)”. Also, the “A10 radioligand binding inhibition” value in experiment [9] is reported as “− (“−” indicates less than 50% inhibition at 10 μM)”. In addition, the “A7 radioligand binding inhibition” value in experiment [10] is recorded as “+ (“+” indicates greater than 50% inhibition at 10 μM)”. In addition, in experiment [11], the “A2 radioligand binding inhibition” value was “− (“−” indicates less than 50% inhibition at 10 μM)”.

The values above are taken from patent US20080009418A1, “Selective Inhibitors” (Alchemia LTD., priority 2004, published 2008).
